Consider one compound from article PMC9057582, “HIF inhibitor 32-134D eradicates murine hepatocellular carcinoma in combination with anti-PD1 therapy” (The Journal of Clinical Investigation, 2022).

Molecules are shown by their SMILES.

The subject of data set [1] is HIF-1α and HIF-2α protein. Briefly: Immunoblot of nuclear extracts of Hep3B cells. It counts as cell-based, human. As to conditions: 5 μM, 24 hours. The procedure:
Figure 1 Identification of HIF inhibitors. (A) Hep3B-c1 cells were stably transfected with firefly luciferase (FLuc) reporter p2.1, which contains a hypoxia-response element (HRE), and Renilla luciferase (RLuc) reporter pSVR. (B) Hep3B-c1 cells were incubated with vehicle (Veh; 0.1% DMSO; blue bars) or 10 μM 32-134D (red bars) at 20% O2 (n = 6) or 1% O2 (n = 12) for 24 hours. Cell lysates were assayed for Fluc/Rluc activity (mean ± SEM); *P < 0.05 versus vehicle (χ^2 test). (C) Chemical structures and IC50 values for HIF inhibitors. (D and E) Hep3B cells were exposed to 20% O2 with vehicle, or 1% O2 with vehicle (blue bar), 32-134D (red bars), 33-063 (green bars), or PT2385 (brown bars) for 24 hours and CA9 (D) and EPO (E) mRNAs were quantified by RT-qPCR. […] (F) Hep3B cells were exposed to 20% or 1% O2 in the presence of vehicle or 1% O2 in the presence of 5 μM 32-134D (n = 3 each) for 24 hours. RNA sequencing identified genes with hypoxia-induced expression (blue circle) and genes that were inhibited by 32-134D (orange circle), based on FDR < 0.05 and fold change > 1.5. (G) Hep3B cells were exposed to 20% or 1% O2 for 24 hours in the presence of vehicle or 5 μM 32-134D, nuclear extracts were prepared, and immunoblot assays were performed. […]
For orientation: In western blotting, separated proteins are transferred to a membrane and probed.

The nature of data set [2]: Mouse pharmacokinetics (plasma, LC-MS/MS). It counts as in vivo, C57BL/6J mice. The following applies: male, C57BL/6J, ip, single intraperitoneal injection of 40 mg/kg. The procedure:
We employed liquid chromatography and tandem mass spectrometry (LC-MS/MS) to quantify the plasma concentration of 32-134D over 24 hours following a single intraperitoneal injection of 40 mg/kg (Figure 9). The maximum plasma concentration (Cmax) of 20 μM occurred at 4 hours with a biexponential decline. […] Further studies are required to determine whether steady-state levels are achieved with daily administration.
Figure 9 Concentration-time profiles of 32-134D in mice (n = 3 per time point) treated with a single dose of 32-134D. Plasma was obtained over 24 hours, with 32-134D concentrations determined by LC-MS/MS. […] Data points and error bars represent mean and SD of 3 replicates, respectively.
Male C57BL/6J mice were administered 32-134D at 40 mg/kg as a single intraperitoneal injection. Mice (n = 3 per time point) were euthanized at 0.5, 1, 2, 4, 8, 16, and 24 hours after injection. Compound 32-134D was quantified in plasma by LC-MS/MS (see Supplemental Methods). Pharmacokinetic parameters were calculated from mean concentration-time data using noncompartmental methods in Phoenix WinNonlin version 8.3 (Certara). The Cmax and time to Cmax (tmax) were the observed values. The AUClast was calculated using the log-linear trapezoidal method. AUC was extrapolated to infinity (AUCINF) by dividing the last quantifiable concentration by the terminal disposition rate constant (λz). The λz was determined from at least 3 points on the slope of the terminal phase of the concentration-time profile. The t1/2 was determined by dividing 0.693 by λz. Cl/F was calculated by dividing the dose administered by AUCINF. V/F was calculated by dividing Cl/F by λz. If the percentage AUC extrapolated was greater than 20% or the r^2 of λz was less than 0.85, the AUCINF, Cl/F, t1/2, and V/F were not reported.

For `Brc1ccc2c(-c3csc(-c4c[nH]c5c(Br)cccc45)n3)c[nH]c2c1` [Compound 32-134D], in data set [1], the HIF-1α protein expression result is on record as “inhibited”. In addition, the CL/F in data set [2] (read-out: apparent clearance (Cl/F)) turned out to be 14.5 mL/min/kg. Further, the Vd/F in data set [2] (read-out: apparent volume of distribution (V/F)) was found to be 6.1 L/kg. Moreover, the AUC(0-inf) in data set [2] (read-out: area under the curve extrapolated to infinity (AUCINF)) is 96.7 µM·h. Besides, the Cmax in data set [2] (read-out: maximum plasma concentration (Cmax)) amounted to 20 µM. Moreover, in data set [2] (read-out: terminal half-life (t1/2) (converted)), the half-life was 4.1 h.
